What all share (format): functional
The species named for assay [1] is Rattus norvegicus. As to the kind of experiment: Ability to stimulate the production of cyclic AMP by rat retinal adenylate cyclase at a concentration of 1 uM.
The species named for assay [2] is Rattus norvegicus. As to the kind of experiment: Ability to stimulate the production of cyclic AMP by rat retinal adenylate cyclase at a concentration of 10 uM.
The species entered for assay [3] is Rattus norvegicus. The assay can be described thus: Ability to stimulate the production of cyclic AMP by rat retinal adenylate cyclase at a concentration of 0.1 uM.

Consider `C[C@H](CN)c1ccc(O)c(O)c1`, for which the Stimulation in assay [1] is reported as 11.7%; in assay [2], 39.1%; in assay [3], 1.6%.
With `NCC(c1ccccc1)c1ccc(O)c(O)c1` (stereo not given), the Stimulation in assay [1] was determined as 16.3%; in assay [2], 97.1%; in assay [3] it was 4.9%.
In the case of `CC(CN)c1ccc(O)c(O)c1` (racemic), the Stimulation in assay [1] is -3.5%; in assay [2], 10.5%; in assay [3], 5.9%.
Regarding `CC(CN)c1ccc(O)c(O)c1` (single isomer, unassigned), the Stimulation in assay [1] came out at 6%; in assay [2], 41%; in assay [3], 1.5%.
Taken in the same sequence, the figures for `NCCc1ccc(O)c(O)c1` [DOPAMINE] were 106.4%, 205.4% and 31.4%.

For the origin of these results see ChEMBL document CHEMBL1123627, “Effect of beta-alkyl substitution on D-1 dopamine agonist activity: absolute configuration of beta-methyldopamine” (1987).
